The results in this text go back to PubChem BioAssay (NCI).

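Briefly, cells in 96-well plates were exposed to five compound concentrations for 48 h, and endpoints were estimated by linear interpolation. TGI denotes the concentration required for complete inhibition of growth.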

Holding throughout (test): NCI-60 cell line screen, 48 h
Assay [1] deals with EKVX NSCLC.
Assay [2] concerns HCT-116 colon.
The test system of assay [3] is HCT-15 colon.
Assay [4] concerns IGROV1 ovarian.
In assay [5] the test system is LOX IMVI melanoma.
Assay [6] concerns NCI-H226 lung.
In assay [7] the test system is OVCAR-4 ovarian.
Assay [8] deals with SK-MEL-5 melanoma.
Assay [9] has as its system SN12C renal.
In assay [10] the test system is U251 CNS.

Consider `CCOC(=O)C1=C(C)N(C)C(=S)NC1c1cccc(O)c1` (stereo not given), for which the TGI in assay [1] is 93.6 µM; in [2], over 100 µM; in assay [3], over 100 µM; in [4], over 100 µM; in assay [5], over 100 µM; in [6] it was over 100 µM. Also, the TGI in assay [7], in assay [8], in assay [9] and in assay [10] was over 100 µM in each case.
`CN(C)[C@@H]1C(=O)C(C(=O)NCNCCCC(=O)O)=C(O)[C@@]2(O)C(=O)C3=C(O)c4c(O)cccc4[C@@](C)(O)[C@H]3C[C@@H]12`: the TGI in assay [1], in assay [2], in [3], in [4], in assay [5] and in assay [6] was over 100 µM in each case. Moreover, the TGI in assay [7], in [8], in assay [9] and in assay [10] was over 100 µM in each case.
